Where “and” joins values, the source holds several entries; their conditions need not be identical. Identical values can stand only once.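 Cells were grown in 96-well plates and exposed to each compound for 48 hours at five concentrations; endpoints were interpolated linearly between bracketing concentrations, or set to the highest concentration if not reached. GI50 marks 50% less growth. Definition used: TGI = concentration required for complete inhibition of growth.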
Tests used:
Assay in all cases: DTP human tumour cell line panel, 48 h
A498 renal = tested on: A498 renal
BT-549 breast = tested on: BT-549 breast
CCRF-CEM leukemia = tested on: CCRF-CEM leukemia
COLO 205 colon = tested on: COLO 205 colon
HS 578T breast = tested on: HS 578T breast
MOLT-4 leukemia = tested on: MOLT-4 leukemia
SK-OV-3 ovarian = tested on: SK-OV-3 ovarian
SNB-19 CNS = tested on: SNB-19 CNS
T-47D breast = tested on: T-47D breast
TK-10 renal = tested on: TK-10 renal

Row | Compound | GI50 (A498 renal) | TGI (A498 renal) | GI50 (BT-549 breast) [µM] | TGI (BT-549 breast) [µM] | GI50 (CCRF-CEM leukemia) | TGI (CCRF-CEM leukemia) | GI50 (COLO 205 colon) | TGI (COLO 205 colon) | GI50 (HS 578T breast) [µM] | TGI (HS 578T breast) | GI50 (MOLT-4 leukemia) [µM] | TGI (MOLT-4 leukemia) | GI50 (SK-OV-3 ovarian) | TGI (SK-OV-3 ovarian) | GI50 (SNB-19 CNS) | TGI (SNB-19 CNS) | GI50 (T-47D breast) | TGI (T-47D breast) | GI50 (TK-10 renal) | TGI (TK-10 renal)
1 | Fc1cc2[nH]ncc2c2c3c(c(-c4cn[nH]c4)nc12)CCCC3 | 0.365 µM | 1.64 µM | 1.38 | 4.94 | 1.13 µM | > 100 µM | 0.658 µM | 2.62 µM | 0.624 | 3.46 µM | 1.72 | 6.15 µM | 0.287 µM | 1.24 µM | 1.65 µM | 17.1 µM | 1.26 µM | > 21.5 µM | 1.21 µM | > 27.8 µM
2 | Nc1ncnc2c1nnn2C1OC(CO)C(O)C1O (stereo not given) |  | 5.68 µM | 0.496 | 5.75 |  | 27.9 µM |  | 2.73 µM | 0.467 | 4.72 µM |  | 22.2 µM |  | 1.95 µM |  | > 52.5 µM | 0.265 µM | 4.81 µM | 0.151 µM | 3.39 µM
3 | COc1c(Cl)c(=O)oc2ccc(Cl)cc12 |  | > 100 µM |  | > 100 |  | > 100 µM |  | > 100 µM |  | > 100 µM |  | > 100 µM |  | > 100 µM |  | > 100 µM |  | > 100 µM |  | > 100 µM
4 | CCN(CC)c1ccc(-c2cc(-c3cc(OC)c(OC)c(OC)c3)nc(N3CCOCC3)c2C#N)cc1 | 2.88 µM | 39.5 µM | 0.48 | > 100 | 0.611 µM | > 44.5 µM | 0.439 µM | 7.48 µM | 0.507 | 12.2 µM | 2.45 | > 100 µM | 3.22 µM | > 100 µM | 12.8 µM | > 100 µM | 1.29 µM | > 100 µM | 15.3 µM | > 100 µM
5 | O=C(CCc1nnc2sc(-c3ccc(Cl)cc3Cl)nn12)c1nc2ncccc2[nH]1 | 1.11 µM | 2.41 µM | 1.98 | 4.36 | 2.68 µM | 9 µM | 1.93 µM | 4.2 µM | 2.71 | 8.02 µM | 1.15 | 60.8 µM | 21.5 µM | 58 µM | 3.53 µM | 16.7 µM | 1.47 µM | 5.03 µM | 2.53 µM | 5.16 µM
6 | COc1cc(OC)cc(-c2cc(=O)c3c(OC)c(OC)c(OC)c(OC)c3o2)c1 |  | 89.6 µM |  | > 100 |  | > 100 µM |  | 30.6 µM |  | 90.6 µM |  | > 100 µM |  | 54.2 µM |  | > 100 µM |  | 64.1 µM |  | > 100 µM
7 | Cc1cc2c(cc1Cl)SC(N(N(C)C)S(=O)(=O)c1ccc(Cl)cc1)=NS2(=O)=O | 15.8 µM | 37.6 µM | 19.4 | 48.7 | 3.29 µM | > 100 µM | 44 µM | > 100 µM | 23.4 | 67.3 µM | 35 | > 100 µM | 33.8 µM | > 100 µM | 25.2 µM | > 100 µM | 15.8 µM | > 100 µM | 43.9 µM | > 100 µM
8 | O=C1OC(O)[C@@H]2[C@H]1[C@H]1CC[C@@H]2O1 (stereo not given in full) | 7.07 µM | 51.9 µM | > 100 | > 100 | > 100 µM | > 100 µM | 1.21 µM | 6.31 µM | > 100 | > 100 µM | > 100 | > 100 µM | > 100 µM | > 100 µM | > 100 µM | > 100 µM | 15.2 µM | 42.6 µM | 27.3 µM | 66.2 µM
9 | CN(C)CCSC1=Nc2ccc(Cl)cc2C(c2ccccc2Cl)=NC1 | 18.7 µM and > 100 µM | 34.2 µM and > 100 µM |  | > 100 | 21.5 µM and 46.2 µM | 82.1 µM and > 100 µM | 14 µM and 74.2 µM | 27.3 µM and > 100 µM |  | 35.7 µM and > 100 µM |  | > 100 µM and 94.3 µM | 16.9 µM and 63.1 µM | 33.6 µM and > 100 µM | 17.1 µM and > 100 µM | 31.1 µM and > 100 µM | 19.2 µM and 78.3 µM | 47.3 µM and > 100 µM | 17.5 µM and 63.4 µM | 33.1 µM and > 100 µM
10 | C=C(Br)C(C)(Br)CCC(Br)C(C)(C)Cl (stereo not given) |  | 45.5 µM |  | 52.6 |  | 13.4 µM |  | 33.8 µM |  | 72 µM |  | 24.5 µM |  | 60.4 µM |  | 34.4 µM |  | 44.1 µM |  | 32.7 µM
11 | O=S(=O)(CCn1c(Sc2ccccc2)c(Sc2ccccc2)c2ccccc21)c1ccccc1 |  | > 100 µM |  | > 100 |  | > 100 µM |  | > 100 µM |  | > 100 µM |  | > 100 µM |  | > 100 µM |  | > 100 µM |  | > 100 µM |  | > 100 µM
12 | COC1=CC(=O)C(C2CC(=O)c3c(O)cc(O)cc3O2)=CC1=O (stereo not given) |  | > 58 µM |  | 42.9 |  | 2.42 µM |  | 32.3 µM |  | 83 µM |  | 5.12 µM |  | > 93.9 µM |  | 68.2 µM |  | 42.7 µM |  | 31.8 µM
13 | Cn1cnc([N+](=O)[O-])c1S(=O)(=O)Oc1cccc2ccccc12 | 11.8 µM | 27.2 µM | 14.4 | 30.7 | 1.32 µM | 9.3 µM | 1.06 µM | 2.64 µM | 26.5 | > 100 µM | 3.37 | 22.7 µM | 46.9 µM | > 100 µM | 29 µM | > 100 µM | 1.91 µM | 4.29 µM | 1.59 µM | 2.98 µM
14 | Cc1cc(/C=C/c2ccc3cc(N(C)C)ccc3[n+]2C)c(C)n1-c1ccccc1 | 0.286 µM | 2.23 µM | 0.159 | 1.09 | 0.218 µM | 2.6 µM | 0.103 µM | 0.213 µM | 0.361 | 9.56 µM | 0.193 | 2.52 µM | 0.142 µM | 1 µM | 0.161 µM | 5.97 µM | 0.0635 µM | 1.15 µM | 0.301 µM | 2.34 µM
15 | CC(C)[C@H]1COC(=O)N1[C@@H]1C(=O)N([C@@H](CCC(=O)N2CCN(C3CCCC3)CC2)C(=O)N[C@@H]2CCCc3ccccc32)[C@@H]1/C=C/c1cccc(Br)c1 | 1.4 µM | 4.04 µM | 1.46 | 3.11 | 2.91 µM | 8.4 µM | 1.5 µM | 3.11 µM | 2.5 | 9.31 µM | 1.45 | 7.39 µM | 2.82 µM | 8.21 µM | 2.77 µM | 14.5 µM | 2.26 µM |  | 1.46 µM | 3.47 µM
16 | CCCCCCCC(=O)SCC/C=C/[C@@H]1CC(=O)NCc2cc(ccn2)C2=N[C@@](C)(CS2)C(=O)N[C@@H](C(C)C)C(=O)O1 | 0.00591 µM | 0.0418 µM | 0.0432 | > 33.3 | 0.0231 µM | > 33.3 µM | 0.0513 µM | 0.147 µM | 0.00745 | 0.203 µM | 0.0133 | > 28.7 µM | 0.00841 µM | 0.0716 µM | 0.109 µM | > 33.3 µM | 0.0838 µM | 0.616 µM | < 0.0141 µM | 0.173 µM
17 | NC1(C(=O)OCc2ccccc2)CCCC1 |  | > 100 µM |  | 33.8 |  | > 100 µM |  | 76.7 µM |  | 79.7 µM |  | 83 µM |  | 71.1 µM |  | 61.1 µM |  | > 100 µM |  | > 100 µM
18 | COc1cc(/C=C/c2cc(O)c(C(C)=O)c(O)c2)cc2c1O[C@]1(C)CC[C@@H](O)C(C)(C)[C@H]1C2 | 4.78 µM | 48.3 µM | 3.03 | 27.6 | 4.4 µM | > 100 µM | 16.1 µM | 68.3 µM | 1.87 | 16.2 µM | 3.22 | 34.7 µM | 9.58 µM | 79.1 µM | 7.46 µM | > 100 µM | 6.22 µM | 64.6 µM | 22.2 µM | > 100 µM
19 | COc1ccc(-c2nnc(COc3ccc(NC(=O)Nc4cc(C(F)(F)F)cc(C(F)(F)F)c4)cc3F)o2)cc1 | 1.56 µM | 5.03 µM | 2.54 | 6.05 | 2.86 µM | 11.6 µM | 1.9 µM | 3.3 µM | 1.99 | 5.55 µM | 2.68 | 14.1 µM | 3.76 µM | 12.7 µM | 3.33 µM | 15.7 µM | 2.62 µM | 6.94 µM | 3.49 µM | 12.4 µM
20 | Cc1cc(O)c(/C=N/C(=S)NCc2ccccc2)c(=O)o1 |  | > 100 µM |  | > 100 |  | > 100 µM |  | > 100 µM |  | > 100 µM |  | > 100 µM |  | > 100 µM |  | > 100 µM |  | > 100 µM |  | > 100 µM
21 | CC(C)C(C)/C=C\C(C)C1CCC2C3=CC=C4CC(O)CCC4(C)C3CCC21C (stereo not given) |  | > 100 µM |  | > 85.6 |  | > 66.9 µM |  | > 61.6 µM |  | > 64.2 µM |  | 58.3 µM |  | > 100 µM |  | > 100 µM |  | > 100 µM |  | > 100 µM
